Assay results as given in patent US9662329B2, “Use of survivin antagonists in polyomavirus-related disease” (University of Pittsburgh—Of the Commonwealth System of …, priority 2012, dated 2017).
Counter-ions that a name gives are not always drawn. Like-named read-outs stand apart in the source and are kept apart here.

Tests used:
Type in all cases: cell-based, human
[1] = tested on: WaGa; experiment: Cell Titer Glo dose-response study; conditions: read-out: EC50 concentrations for MCC cell lines, WaGa
From the text: (§1) Seven Merkel cell carcinoma cell lines: MKL-1, MKL-2, MS-1, UISO, MCC13, MCC26 and WaGa (kind gift of Jurgen Becker (Houben et al., Merkel cell polyomavirus-infected Merkel cell carcinoma cells require expression of viral T antigens. J Virol 84, 7064 (July, 2010); Ronan et al., Merkel cell carcinoma: in vitro and in vivo characteristics of a new cell line. J Am Acad Dermatol 29, 715 (November, 1993); Rosen et al., Establishment and characterization of a neuroendocrine skin carcinoma cell line. Lab Invest 56, 302 (March, 1987)); NCI-H69 small cell lung cancer cell line (ATCC); 293 human embryonic kidney cells (ATCC); U2OS osteosarcoma cell line (kind gift of Ole Gjoerup); BJhTERT immortalized foreskin fibroblast cell line (kind gift of Ole Gjoerup); and BJ primary foreskin fibroblasts (ATCC) were used to screen and evaluate the small molecules examined in this study (Houben et al., J Virol 84, 7064 (July, 2010); Ronan et al., J Am Acad Dermatol 29, 715 (November, 1993); Rosen et al., Lab Invest 56, 302 (March, 1987)). The Merkel cell lines and NCI-H69 were grown in RPMI 1640 supplemented with 10% fetal calf serum, penicillin and streptomycin at 37° C. in humidified air containing 5% CO2. The remaining cell lines were grown in DMEM supplemented with 10% fetal calf serum.
(§2) For EC50 measurements, dose-response curves were established for 17 drugs obtained individually in bulk stocks. Iodoacetamide (I1149), sanguarine chloride (S5890), NSC95397 (N1786), chelerythrine chloride (C2932), calmidazolium chloride (C3930), tetraethylthiuram disulfide (T1132), bay 11-7085 (B5681), quinacrine dihydro chloride (Q3251), ellipticine (E3380), amsacrine hydrochloride (A9809) and nutlin-3 (N6287) were purchased from Sigma Aldrich, USA.
(§3) Compounds that met the selection criteria <10% cell survival were purchased or obtained in bulk from NCI/NIH Developmental Therapeutics Program. Serial drug dilutions from 10^−4 M to 10^−9 M were used on MCC and non-MCC cell lines. Cells were seeded into 384-well plates at 6000 cells in 50 μl of medium per well. After 24 hours, 25 μl of 3× drugs were added at increasing concentration to each well. Cell viability was then measured using Cell Titer Glo (Promega) kit following manufacturer's instructions as described previously. Each drug concentration was tested in triplicate for each cell line and experiments were repeated twice. EC50 doses for the drugs were calculated using a four parameter logistic equation (GraphPad Prism).

[2] = tested on: UISO; experiment: Cell Titer Glo dose-response study; conditions: read-out: EC50 concentrations for MCC cell lines, UISO
From the text: as §1, §2, §3

[3] = tested on: MKL-1; experiment: Cell Titer Glo dose-response study
From the text: as §1, §2, §3

[4] = tested on: MKL-2; experiment: Cell Titer Glo dose-response study; conditions: read-out: EC50 concentrations for MCC cell lines, MKL-2
From the text: as §1, §2, §3

[5] = tested on: MS-1; experiment: Cell Titer Glo dose-response study
From the text: as §1, §2, §3

[6] = tested on: MKL-1 cells; experiment: MKL-1 cytotoxicity screen (Cell Titer Glo); conditions: screened at 10^-5 M; 48 hours; cut-off <10% cell survival
From the text: A total of 1,360 compounds were used in the initial screening survey: 1,280 compounds from LOPAC1280 library (Sigma Aldrich, accessed through University of Pittsburgh Drug Discovery Institute), 89 compounds from NCI's Approved Oncology Drug Set II (from The NCI/DTP Open Chemical Repository, http://dtp.cancer.gov), 6 LT ATPase inhibitors (MAL2-11B, MAL3-101, MAL2-51, DMT3084, bithionol and hexachlorophene (Wright et al., Inhibition of Simian Virus 40 replication by targeting the molecular chaperone function and ATPase activity of T antigen. Virus Res 141, 71 (April, 2009); Seguin et al., High-Throughput Screening Identifies a Bisphenol Inhibitor of SV40 Large T Antigen ATPase Activity. […] NCI Approved Oncology Drug Set II, SV40 LT ATPase inhibitors and MDM2 inhibitors were reconstituted as recommended by supplier. […] Reconstituted compounds were diluted in cell culture media to obtain a 100× stock concentration prior to addition to cells. Doxorubicin (positive control) was obtained from Sigma-Aldrich and DMSO (negative control) was obtained from Fisher Bioreagents.
MKL-1 cells were seeded at a density of 6000 cells in 50 μl of medium per well (120 cells/μl) in opaque polypropylene 384-well microplates (#781080, Greiner Bio-One, Germany). Cells were incubated at 37° C. in humidified air containing 5% CO2 for 24 hours. Thereafter, 25 μl of medium containing 3× drug per well was added to the plates, which were incubated for an additional 48 hours. Cell viability was measured using Cell Titer Glo (Promega) following manufacturer's instructions.
The LOPAC1280 library was screened at a final concentration of 10 μM for each compound and the NCI library was screened at a final concentration of 1 μM for each compound.
Cell Titer Glo assays were performed in duplicate using 384 well plates, each containing 24 wells with 1% DMSO (negative control) and 32 wells with 200 μM doxorubicin (positive control). Screening results were evaluated on the basis of percentage cell survival normalized to the DMSO control (100%). Positive candidates were identified using a cut-off value of <10% cell survival.

[7] = tested on: MKL-1 cells; experiment: Cell cycle analysis (PI and BrdU staining); conditions: 12 h, YM155 100 nM, camptothecin 1 μM
Description: MKL-1 cells were treated with Accutase (Millipore) to break clumps and then resuspended in fresh medium containing drug and treated for 12 hours. Three hours before harvest 10 μM Bromodeoxyuridine (BrdU) was added. Cells were then harvested and fixed in chilled 70% ethanol and left overnight. The next day cells were washed, resuspended in 200 μl of 2M HCl/Triton X (1%) and incubated for 30 mins at room temperature. Cells were then centrifuged at 2000 rpm for 10 mins and neutralized in 200 μl of 0.1M sodium tetraborate, pH 8.5 solution. Cells were then washed, suspended in 20 μl of PBS containing 0.5% tween20, 1% donkey serum and 2ul of anti-BrdU antibody (1:10 diution, BD Biosciences) and incubated overnight at 4° C. Cells were then washed and incubated with secondary antibody-anti mouse Alexa488 (1:1000) for 1 hour at room temperature. Cells were finally washed, suspended in PBS containing 100 μg/ml of RNase A, 50 μg/ml of PI (propidium iodide) and 0.05% Triton X and incubated for 30 mins at 37° C. in the dark. The cells were then subjected to FACS using the accuri C6 flow cytometer (UPCI shared resources).

[8] = Homo sapiens, WaGa (MCV-positive), Cell Titer Glo
[9] = Homo sapiens, UISO (MCV-negative), Cell Titer Glo
[10] = Homo sapiens, MKL-1 (MCV-positive), Cell Titer Glo, read-out: EC50 concentrations for MCC cell lines, MKL-1
[11] = Homo sapiens, MKL-2 (MCV-positive), Cell Titer Glo
[12] = Homo sapiens, MS-1 (MCV-positive), Cell Titer Glo, read-out: EC50 concentrations for MCC cell lines, MS-1
[13] = WaGa (MCV-positive), Cell Titer Glo
[14] = UISO (MCV-negative), Cell Titer Glo
[15] = MKL-1 (MCV-positive), Cell Titer Glo, read-out: EC50 concentrations for MCC cell lines, MKL-1
[16] = MKL-2 (MCV-positive), Cell Titer Glo
[17] = MS-1 (MCV-positive), Cell Titer Glo, read-out: EC50 concentrations for MCC cell lines, MS-1
[18] = Homo sapiens, MKL-1, read-out: EC50 concentrations for MCC cell lines, MKL-1
[19] = Homo sapiens, MS-1, read-out: EC50 concentrations for MCC cell lines, MS-1

SMILES | EC50 [1, 8] | EC50 [2, 9] | EC50 [3, 10] | EC50 [4, 11] | EC50 [5, 12] | other results
COc1cc(NS(C)(=O)=O)ccc1Nc1c2ccccc2nc2ccccc12 [Amsacrine hydrochloride] | 0.25 µM | 2.6 µM | 0.11 µM | 3 µM | 7.5 µM | –
CC(C)(C)c1ccc(S(=O)(=O)/C=C/C#N)cc1 [Bay 11-7085] | – | – | – | – | – | EC50 [1, 13]: 1.2 µM; EC50 [2, 14]: 4.5 µM; EC50 [3, 15]: 1.4 µM; EC50 [4, 16]: 1.7 µM; EC50 [5, 17]: 2.7 µM
Clc1ccc(C(c2ccc(Cl)cc2)n2cc[n+](CC(OCc3ccc(Cl)cc3Cl)c3ccc(Cl)cc3Cl)c2)cc1 (stereo not drawn) [Calmidazolium chloride] | 2.1 µM | 2 µM | 2.2 µM | 1.7 µM | 2.1 µM | –
COc1ccc2c(c[n+](C)c3c4cc5c(cc4ccc23)OCO5)c1OC [Chelerythrine chloride] | 0.7 µM | 3.7 µM | 0.6 µM | 0.65 µM | 0.52 µM | –
COc1cccc2c1C(=O)c1c(O)c3c(c(O)c1C2=O)C[C@@](O)(C(C)=O)C[C@@H]3O[C@H]1C[C@H](N)[C@H](O)[C@H](C)O1 [Daunorubicin] | – | – | – | – | – | EC50 ([1]; Homo sapiens): 0.018 µM; EC50 ([2]; Homo sapiens): 1.4 µM; EC50 [3, 18]: 0.015 µM; EC50 ([4]; Homo sapiens): 0.086 µM; EC50 [5, 19]: 0.15 µM
COc1cccc2c1C(=O)c1c(O)c3c(c(O)c1C2=O)C[C@@](O)(C(=O)CO)C[C@@H]3O[C@H]1C[C@H](N)[C@H](O)[C@H](C)O1 [Doxorubicin] | 0.022 µM | 0.25 µM | 0.21 µM | 0.022 µM | 0.37 µM | –
Cc1c2ccncc2c(C)c2c1[nH]c1ccccc12 [Ellipticine] | 3 µM | 1.1 µM | 3.2 µM | 6.5 µM | 6.9 µM | –
NC(=O)CI [Iodoacetamide] | – | – | – | – | – | EC50 ([1]; Homo sapiens): 0.37 µM; EC50 ([2]; Homo sapiens): 2.5 µM; EC50 [3, 18]: 0.29 µM; EC50 ([4]; Homo sapiens): 0.3 µM; EC50 [5, 19]: 0.64 µM
O=C1c2c(O)ccc(O)c2C(=O)c2c(NCCNCCO)ccc(NCCNCCO)c21 [Mitoxantrone] | 0.014 µM | 0.97 µM | 0.006 µM | 1.3 µM | 1.6 µM | –
O=C1C(SCCO)=C(SCCO)C(=O)c2ccccc21 [NSC 95397] | – | – | – | – | – | EC50 [1, 13]: 0.73 µM; EC50 [2, 14]: 2.8 µM; EC50 [3, 15]: 1.2 µM; EC50 [4, 16]: 1.5 µM; EC50 [5, 17]: 1.8 µM
CCN(CC)CCCC(C)Nc1c2ccc(Cl)cc2nc2ccc(OC)cc12 (stereo not drawn) [Quinacrine dihydrochloride] | – | – | – | – | – | EC50 ([1]; Homo sapiens): 5.2 µM; EC50 ([2]; Homo sapiens): 7.1 µM; EC50 [3, 18]: 5.1 µM; EC50 ([4]; Homo sapiens): 4.6 µM; EC50 [5, 19]: 4.9 µM
C[n+]1cc2c3c(ccc2c2ccc4cc5c(cc4c21)OCO5)OCO3 [Sanguinarine chloride] | – | – | – | – | – | EC50 ([1]; Homo sapiens): 2.5 µM; EC50 ([2]; Homo sapiens): 6.5 µM; EC50 [3, 18]: 5.3 µM; EC50 ([4]; Homo sapiens): 8.4 µM; EC50 [5, 19]: 4.9 µM
COc1cc([C@@H]2c3cc4c(cc3[C@@H](O[C@@H]3O[C@@H]5CO[C@@H](c6cccs6)O[C@H]5[C@H](O)[C@H]3O)[C@H]3COC(=O)[C@H]23)OCO4)cc(OC)c1O [Teniposide] | 0.026 µM | 7.3 µM | 0.01 µM | 2.8 µM | 3 µM | –
CCN(CC)C(=S)SSC(=S)N(CC)CC [Tetraethylthiuram disulfide] | 1.1 µM | 13 µM | 0.49 µM | 0.19 µM | 6.3 µM | –
CC[C@@]1(O)C(=O)OCc2c1cc1n(c2=O)Cc2cc3c(CN(C)C)c(O)ccc3nc2-1 [Topotecan] | 0.015 µM | 0.17 µM | 0.028 µM | 0.43 µM | 0.62 µM | –
CCC(=O)N1CCN(c2ccc(-n3c(=O)ccc4cnc5ccc(-c6cnc7ccccc7c6)cc5c43)cc2C(F)(F)F)CC1 [Torin1] | – | – | – | – | – | activity in screen (>90% inhibition of MKL-1 cell growth) [6]: not active
CCCCC(=O)OCC(=O)[C@]1(O)Cc2c(O)c3c(c(O)c2[C@@H](O[C@H]2C[C@H](NC(=O)C(F)(F)F)[C@H](O)[C@H](C)O2)C1)C(=O)c1c(OC)cccc1C3=O [Valrubicin] | 0.32 µM | 4 µM | 0.23 µM | 2.8 µM | 9.9 µM | –
Nc1nc2c(ncn2COCCO)c(=O)[nH]1 [acyclovir] | – | – | – | – | – | activity in screen (>90% inhibition of MKL-1 cell growth) [6]: not active
CC[C@@]1(O)C(=O)OCc2c1cc1n(c2=O)Cc2cc3ccccc3nc2-1 [camptothecin] | – | – | – | – | – | BrdU incorporation [7]: accumulation of BrdU-positive cells in G1 and G2
CO[C@H]1C[C@@H]2CC[C@@H](C)[C@@](O)(O2)C(=O)C(=O)N2CCCC[C@H]2C(=O)O[C@H]([C@H](C)C[C@@H]2CC[C@@H](OCCO)[C@H](OC)C2)CC(=O)[C@H](C)/C=C(\C)[C@@H](O)[C@@H](OC)C(=O)[C@H](C)C[C@H](C)/C=C/C=C/C=C/1C [everolimus] | – | – | – | – | – | activity in screen (>90% inhibition of MKL-1 cell growth) [6]: not active
COc1ccc(C2=N[C@@H](c3ccc(Cl)cc3)[C@@H](c3ccc(Cl)cc3)N2C(=O)N2CCNC(=O)C2)c(OC(C)C)c1 [nutlin-3] | – | – | – | – | – | activity in screen (>90% inhibition of MKL-1 cell growth) [6]: not active
CO[C@H]1C[C@@H]2CC[C@@H](C)[C@@](O)(O2)C(=O)C(=O)N2CCCC[C@H]2C(=O)O[C@H]([C@H](C)C[C@@H]2CC[C@@H](O)[C@H](OC)C2)CC(=O)[C@H](C)/C=C(\C)[C@@H](O)[C@@H](OC)C(=O)[C@H](C)C[C@H](C)/C=C/C=C/C=C/1C [rapamycin] | – | – | – | – | – | activity in screen (>90% inhibition of MKL-1 cell growth) [6]: not active
NC(=O)c1ncn([C@@H]2O[C@H](CO)[C@@H](O)[C@H]2O)n1 [ribavirin] | – | – | – | – | – | activity in screen (>90% inhibition of MKL-1 cell growth) [6]: not active
